Measured values: patent US9738634B2, “Heterocyclic amide compound and herbicide” (SYNGENTA PARTICIPATIONS AG, priority 2013, dated 2017)

Experiments:
Type in all cases: in vivo
chickweed = assay: Test Example 3: weedkilling efficacy through soil treatment; N: chickweed; details: soil treatment, treatment dosage 315 g/ha
Excerpt: (§1) Weedkilling Efficacy Test Through Soil Treatment
(§2) Sterilized diluvial soil was introduced into 21 cm long, 13 cm wide, 7 cm deep plastic boxes, and seeds of crabgrass, green foxtail, barnyard grass, wild oat, black-grass, Italian ryegrass, common wind-grass, Indian mallow, redroot pigweed, fig-leafed goosefoot, chickweed, catchweed, birds-eye speedwell, corn, soybean, rice, wheat, beet and rapeseed were each spot-sown, and covered with about 1.5 cm of soil. Next, emulsions of compounds of the present invention prepared according to compounding example 2 were diluted with water to give the specified dosages, and applied uniformly onto the soil surface with a small sprayer. The plants were grown by placing the plastic boxes in a greenhouse at 25 to 30° C., and 3 weeks after the pesticide treatment the effect on each type of plant was investigated on the basis of the assessment criteria of test example 1.
(§3) A: barnyard grass, B: bulrush, C: oval-leafed pondweed, D: crabgrass, E: green foxtail, F: barnyard grass, G: wild oat, H: black-grass, I: Italian ryegrass, J: common wind-grass, K: Indian mallow, L: redroot pigweed, M: fig-leafed goosefoot, N: chickweed, O: catchweed, p: birds-eye speedwell, a: transplanted rice, b: directly sown rice, c: corn, d: soybean, e: wheat, f: beet, g: rapeseed
(§4) Further, pesticide dosage (g/ha) indicates the concentration regulated such that treatment was with only the stated number of grams (g), when calculated per hectare (ha).

beet = assay: Test Example 3: soil treatment, effect on crop; f: beet; details: soil treatment, treatment dosage 315 g/ha
Excerpt: as §1, §2, §3, §4

oval-leafed pondweed [1] = assay: Test Example 1: weedkilling efficacy, preemergent weed treatment in the submerged state; C: oval-leafed pondweed
Summary of the method: (§5)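 Alluvial soil in Wagner pots flooded to 4 cm; barnyard grass, bulrush and oval-leafed pondweed seeds sown, then 2.5-leaf rice seedlings transplanted. Same day, emulsified compound diluted in water to set g/ha dosages and applied to water surface; greenhouse 25–30 °C, effect scored by criteria after 3 weeks.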

barnyard grass [2] = assay: Test Example 1: weedkilling efficacy, preemergent weed treatment in the submerged state; A: barnyard grass
Summary of the method: as §5

wheat = assay: Test Example 3: soil treatment, effect on crop; e: wheat; details: soil treatment, treatment dosage 315 g/ha
Excerpt: as §1, §2, §3, §4

corn = assay: Test Example 3: soil treatment, effect on crop; c: corn; details: soil treatment, treatment dosage 315 g/ha
Excerpt: as §1, §2, §3, §4

bulrush [3] = assay: Test Example 2: weedkilling efficacy, growth period weed treatment in the submerged state; B: bulrush
Summary of the method: (§6)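 First, alluvial soil in pots is flooded to 4 cm and mixed seed is sown. Next, plants grow in a greenhouse at 25 to 30° C until the 1-2 leaf stage. Then diluted emulsion is applied onto the water surface at the given g/ha rate, and injury is assessed after 3 weeks.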

barnyard grass [4] = assay: Test Example 2: weedkilling efficacy, growth period weed treatment in the submerged state; A: barnyard grass
Summary of the method: as §6

redroot pigweed = assay: Test Example 3: weedkilling efficacy through soil treatment; L: redroot pigweed; details: soil treatment, treatment dosage 315 g/ha
Excerpt: as §1, §2, §3, §4

fig-leafed goosefoot = assay: Test Example 3: weedkilling efficacy through soil treatment; M: fig-leafed goosefoot; details: soil treatment, treatment dosage 315 g/ha
Excerpt: as §1, §2, §3, §4

Indian mallow = assay: Test Example 3: weedkilling efficacy through soil treatment; K: Indian mallow; details: soil treatment, treatment dosage 315 g/ha
Excerpt: as §1, §2, §3, §4

crabgrass = assay: Test Example 3: weedkilling efficacy through soil treatment; D: crabgrass; details: soil treatment, treatment dosage 315 g/ha
Excerpt: as §1, §2, §3, §4

Italian ryegrass = assay: Test Example 3: weedkilling efficacy through soil treatment; I: Italian ryegrass; details: soil treatment, treatment dosage 315 g/ha
Excerpt: as §1, §2, §3, §4

oval-leafed pondweed [5] = assay: Test Example 2: weedkilling efficacy, growth period weed treatment in the submerged state; C: oval-leafed pondweed
Summary of the method: as §6

bulrush [6] = assay: Test Example 1: weedkilling efficacy, preemergent weed treatment in the submerged state; B: bulrush
Summary of the method: as §5

soybean = assay: Test Example 3: soil treatment, effect on crop; d: soybean; details: soil treatment, treatment dosage 315 g/ha
Excerpt: as §1, §2, §3, §4

black-grass = assay: Test Example 3: weedkilling efficacy through soil treatment; H: black-grass; details: soil treatment, treatment dosage 315 g/ha
Excerpt: as §1, §2, §3, §4

green foxtail = assay: Test Example 3: weedkilling efficacy through soil treatment; E: green foxtail; details: soil treatment, treatment dosage 315 g/ha
Excerpt: as §1, §2, §3, §4

transplanted rice = assay: Test Example 1: preemergent weed treatment in the submerged state, effect on crop; a: transplanted rice
Summary of the method: as §5

wild oat = assay: Test Example 3: weedkilling efficacy through soil treatment; G: wild oat; details: soil treatment, treatment dosage 315 g/ha
Excerpt: as §1, §2, §3, §4

directly sown rice = assay: Test Example 3: soil treatment, effect on crop; b: directly sown rice; details: soil treatment, treatment dosage 315 g/ha
Excerpt: as §1, §2, §3, §4

SMILES: CC(C)(C(=O)Nc1cccc(Cl)n1)N1COCN(c2ccccc2)C1=O [A-2-07]
- N: chickweed, weedkilling efficacy grade (chickweed): 4 (weed kill ratio 70% or more, less than 90%)
- f: beet, effect on crop grade (beet): 5 (weed kill ratio 90% or more, (practically complete withering))
- C: oval-leafed pondweed, weed kill grade (oval-leafed pondweed [1]; treatment dosage 252 g/ha): 5 (weed kill ratio 90% or more, (practically complete withering))
- A: barnyard grass, weed kill grade (barnyard grass [2]; treatment dosage 252 g/ha): 5 (weed kill ratio 90% or more, (practically complete withering))
- e: wheat, effect on crop grade (wheat): 3 (weed kill ratio 40% or more, less than 70%)
- c: corn, effect on crop grade (corn): 4 (weed kill ratio 70% or more, less than 90%)
- B (bulrush) weedkilling efficacy grade (bulrush [3]; treatment dosage 252 g/ha): 5 (weed kill ratio 90% or more, (practically complete withering))
- A (barnyard grass) weedkilling efficacy grade (barnyard grass [4]; treatment dosage 252 g/ha): 4 (weed kill ratio 70% or more, less than 90%)
- L: redroot pigweed, weedkilling efficacy grade (redroot pigweed): 5 (weed kill ratio 90% or more, (practically complete withering))
- M: fig-leafed goosefoot, weedkilling efficacy grade (fig-leafed goosefoot): 4 (weed kill ratio 70% or more, less than 90%)
- K: Indian mallow, weedkilling efficacy grade (Indian mallow): 0 (weed kill ratio 5% or less (practically no effect))
- D: crabgrass, weedkilling efficacy grade (crabgrass): 5 (weed kill ratio 90% or more, (practically complete withering))
- I: Italian ryegrass, weedkilling efficacy grade (Italian ryegrass): 5 (weed kill ratio 90% or more, (practically complete withering))
- C (oval-leafed pondweed) weedkilling efficacy grade (oval-leafed pondweed [5]; treatment dosage 252 g/ha): 5 (weed kill ratio 90% or more, (practically complete withering))
- B: bulrush, weed kill grade (bulrush [6]; treatment dosage 252 g/ha): 5 (weed kill ratio 90% or more, (practically complete withering))
- d: soybean, effect on crop grade (soybean): 4 (weed kill ratio 70% or more, less than 90%)
- H: black-grass, weedkilling efficacy grade (black-grass): 5 (weed kill ratio 90% or more, (practically complete withering))
- E: green foxtail, weedkilling efficacy grade (green foxtail): 5 (weed kill ratio 90% or more, (practically complete withering))
- a: transplanted rice, effect on crop grade (transplanted rice; treatment dosage 252 g/ha): 4 (weed kill ratio 70% or more, less than 90%)
- G: wild oat, weedkilling efficacy grade (wild oat): 5 (weed kill ratio 90% or more, (practically complete withering))

SMILES: CC(C)(C(=O)Nc1cc(Cl)cc(Br)n1)N1COCN(c2ccccc2)C1=O [A-2-24]
- N: chickweed, weedkilling efficacy grade (chickweed): 4 (weed kill ratio 70% or more, less than 90%)
- C: oval-leafed pondweed, weed kill grade (oval-leafed pondweed [1]; treatment dosage 252 g/ha): 5 (weed kill ratio 90% or more, (practically complete withering))
- A: barnyard grass, weed kill grade (barnyard grass [2]; treatment dosage 252 g/ha): 5 (weed kill ratio 90% or more, (practically complete withering))
- e: wheat, effect on crop grade (wheat): 4 (weed kill ratio 70% or more, less than 90%)
- c: corn, effect on crop grade (corn): 0 (weed kill ratio 5% or less (practically no effect))
- B (bulrush) weedkilling efficacy grade (bulrush [3]; treatment dosage 252 g/ha): 5 (weed kill ratio 90% or more, (practically complete withering))
- A (barnyard grass) weedkilling efficacy grade (barnyard grass [4]; treatment dosage 252 g/ha): 5 (weed kill ratio 90% or more, (practically complete withering))
- L: redroot pigweed, weedkilling efficacy grade (redroot pigweed): 4 (weed kill ratio 70% or more, less than 90%)
- b: directly sown rice, effect on crop grade (directly sown rice): 4 (weed kill ratio 70% or more, less than 90%)
- M: fig-leafed goosefoot, weedkilling efficacy grade (fig-leafed goosefoot): 4 (weed kill ratio 70% or more, less than 90%)
- K: Indian mallow, weedkilling efficacy grade (Indian mallow): 4 (weed kill ratio 70% or more, less than 90%)
- D: crabgrass, weedkilling efficacy grade (crabgrass): 5 (weed kill ratio 90% or more, (practically complete withering))
- I: Italian ryegrass, weedkilling efficacy grade (Italian ryegrass): 5 (weed kill ratio 90% or more, (practically complete withering))
- C (oval-leafed pondweed) weedkilling efficacy grade (oval-leafed pondweed [5]; treatment dosage 252 g/ha): 5 (weed kill ratio 90% or more, (practically complete withering))
- B: bulrush, weed kill grade (bulrush [6]; treatment dosage 252 g/ha): 5 (weed kill ratio 90% or more, (practically complete withering))
- d: soybean, effect on crop grade (soybean): 1 (weed kill ratio 5% or more, less than 20%)
- H: black-grass, weedkilling efficacy grade (black-grass): 5 (weed kill ratio 90% or more, (practically complete withering))
- E: green foxtail, weedkilling efficacy grade (green foxtail): 5 (weed kill ratio 90% or more, (practically complete withering))
- a: transplanted rice, effect on crop grade (transplanted rice; treatment dosage 252 g/ha): 0 (weed kill ratio 5% or less (practically no effect))
- G: wild oat, weedkilling efficacy grade (wild oat): 5 (weed kill ratio 90% or more, (practically complete withering))

SMILES: CC1=C(c2ccccc2)C(=O)N(C(C)(C)C(=O)Nc2cc(Cl)cc(-c3ccccc3)n2)CO1 [B-2-45]
- C (oval-leafed pondweed) weedkilling efficacy grade (oval-leafed pondweed [1]; treatment dosage 320 g/ha): 4 (weed kill ratio 70% or more, less than 90%)
- A (barnyard grass) weedkilling efficacy grade (barnyard grass [2]; treatment dosage 320 g/ha): 5 (weed kill ratio 90% or more, (practically complete withering))
- B (bulrush) weedkilling efficacy grade (bulrush [3]; treatment dosage 320 g/ha): 2 (weed kill ratio 20% or more, less than 40%)
- A (barnyard grass) weedkilling efficacy grade (barnyard grass [4]; treatment dosage 320 g/ha): 4 (weed kill ratio 70% or more, less than 90%)
- C (oval-leafed pondweed) weedkilling efficacy grade (oval-leafed pondweed [5]; treatment dosage 320 g/ha): 4 (weed kill ratio 70% or more, less than 90%)
- B (bulrush) weedkilling efficacy grade (bulrush [6]; treatment dosage 320 g/ha): 5 (weed kill ratio 90% or more, (practically complete withering))
- a (transplanted rice) effect on crop grade (transplanted rice; treatment dosage 320 g/ha): 2 (weed kill ratio 20% or more, less than 40%)

SMILES: CC1=C(c2ccccc2)C(=O)N(C(C)(C)C(=O)Nc2cc(Oc3ccccc3)cc(Cl)n2)CO1 [B-2-48]
- C (oval-leafed pondweed) weedkilling efficacy grade (oval-leafed pondweed [1]; treatment dosage 266 g/ha): 4 (weed kill ratio 70% or more, less than 90%)
- A (barnyard grass) weedkilling efficacy grade (barnyard grass [2]; treatment dosage 266 g/ha): 5 (weed kill ratio 90% or more, (practically complete withering))
- B (bulrush) weedkilling efficacy grade (bulrush [3]; treatment dosage 266 g/ha): 2 (weed kill ratio 20% or more, less than 40%)
- A (barnyard grass) weedkilling efficacy grade (barnyard grass [4]; treatment dosage 266 g/ha): 0 (weed kill ratio 5% or less (practically no effect))
- C (oval-leafed pondweed) weedkilling efficacy grade (oval-leafed pondweed [5]; treatment dosage 266 g/ha): 0 (weed kill ratio 5% or less (practically no effect))
- B (bulrush) weedkilling efficacy grade (bulrush [6]; treatment dosage 266 g/ha): 5 (weed kill ratio 90% or more, (practically complete withering))
- a (transplanted rice) effect on crop grade (transplanted rice; treatment dosage 266 g/ha): 0 (weed kill ratio 5% or less (practically no effect))

SMILES: CC1=C(c2ccccc2)C(=O)N(C(C)(C)C(=O)Nc2cc(-c3ccccc3)ccn2)CO1 [B-2-59]
- C (oval-leafed pondweed) weedkilling efficacy grade (oval-leafed pondweed [1]; treatment dosage 252 g/ha): 2 (weed kill ratio 20% or more, less than 40%)
- A (barnyard grass) weedkilling efficacy grade (barnyard grass [2]; treatment dosage 252 g/ha): 2 (weed kill ratio 20% or more, less than 40%)
- B (bulrush) weedkilling efficacy grade (bulrush [3]; treatment dosage 252 g/ha): 1 (weed kill ratio 5% or more, less than 20%)
- A (barnyard grass) weedkilling efficacy grade (barnyard grass [4]; treatment dosage 252 g/ha): 0 (weed kill ratio 5% or less (practically no effect))
- C (oval-leafed pondweed) weedkilling efficacy grade (oval-leafed pondweed [5]; treatment dosage 252 g/ha): 0 (weed kill ratio 5% or less (practically no effect))
- B (bulrush) weedkilling efficacy grade (bulrush [6]; treatment dosage 252 g/ha): 4 (weed kill ratio 70% or more, less than 90%)
- a (transplanted rice) effect on crop grade (transplanted rice; treatment dosage 252 g/ha): 0 (weed kill ratio 5% or less (practically no effect))

SMILES: CC1=C(c2ccccc2)C(=O)N(C(C)(C)C(=O)Nc2cccc(-c3ccccc3)n2)CO1 [B-2-60]
- C (oval-leafed pondweed) weedkilling efficacy grade (oval-leafed pondweed [1]; treatment dosage 252 g/ha): 5 (weed kill ratio 90% or more, (practically complete withering))
- A (barnyard grass) weedkilling efficacy grade (barnyard grass [2]; treatment dosage 252 g/ha): 5 (weed kill ratio 90% or more, (practically complete withering))
- B (bulrush) weedkilling efficacy grade (bulrush [3]; treatment dosage 252 g/ha): 3 (weed kill ratio 40% or more, less than 70%)
- A (barnyard grass) weedkilling efficacy grade (barnyard grass [4]; treatment dosage 252 g/ha): 4 (weed kill ratio 70% or more, less than 90%)
- C (oval-leafed pondweed) weedkilling efficacy grade (oval-leafed pondweed [5]; treatment dosage 252 g/ha): 3 (weed kill ratio 40% or more, less than 70%)
- B (bulrush) weedkilling efficacy grade (bulrush [6]; treatment dosage 252 g/ha): 5 (weed kill ratio 90% or more, (practically complete withering))
- a (transplanted rice) effect on crop grade (transplanted rice; treatment dosage 252 g/ha): 0 (weed kill ratio 5% or less (practically no effect))
